Measurements reported in patent publication US20220153732A1, “PROTEIN SECRETION INHIBITORS” (KEZAR LIFE SCIENCES, priority 2019, published 2022).
pEC50, pIC50: −log10 of the molar value. Where two headings read alike, the source gives them in different places.

How the values were obtained:
Type in all cases: cell-based
[1] = system: human multiple myeloma cell line NCI-H929; assay: H929 Cell Viability Assay; conditions: 48 hr, NCI-H929 cells, Celltiter-Glo, read-out: 48 hr H929 Viability Celltiter-Glo: Mean EC50
Procedure: Plates were incubated at 37° C., 5% CO2 for 48 hours. After 48 hours, Celltiter-Glo® (Promega) was added to each well and luciferase signal was quantified using Tecan Infinite M1000 Pro for cell viability determination.
For chemical structures that include one or more stereoisomers, but are illustrated without indicating stereochemistry, the assay data refers to a mixture of stereoisomers.

[2] = system: human multiple myeloma cell line U266B1; assay: U266 Cell Viability Assay; conditions: U-266, 48 hr, U266B1 cells, Celltiter-Glo, read-out: 48 hr U266 Viability Celltiter-Glo: Mean EC50
Procedure, shortened: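 Viability measured by CellTiter-Glo luciferase signal after 48 h compound exposure (37 °C, 5% CO2) of U266B1 cells in 384-well format. Where stereochemistry is not shown, data refer to the stereoisomer mixture.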

[3] = system: TNFα-FL/Gaussia Luciferase; assay: Dox Induced TNFα-FL-Gluc Assay; conditions: 293FRT/TO cells, read-out: 24 hr Dox Inducible TNFaFLGluc 293FRT/TO: Mean IC50
Procedure, shortened: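 Compounds were added in doxycycline-containing DMSO/media to cells plated the previous day and incubated at 37° C under 5% CO2. These cells stably express a TNFα-FL/Gaussia luciferase cDNA whose expression is under T-REx (Dox-inducible) control, selected with Hygromycin and Blasticidin.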

[4] = system: IL-2-FL/Gaussia Luciferase; assay: Dox Induced IL2-FL-Gluc Assay; conditions: 293FRT/TO cells, read-out: 24 hr Dox Inducible IL2FLGIuc 293FRT/TO: Mean IC50
Procedure, shortened: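 Compounds were added together with doxycycline in DMSO/media and incubated at 37° C., 5% CO2. The cells were a stably selected line carrying IL-2-FL/Gaussia luciferase under T-REx inducible control. Structures drawn without stereochemistry were tested as stereoisomer mixtures.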

[5] = system: HER3-ss+4aa/Gaussia Luciferase; assay: Dox-Induced Her3-ss-Gluc Assay; conditions: 293FRT/TO cells, read-out: 24 hr Dox Inducible Her3(ss + 4)Gluc 293FRT/TO: Mean IC50
Procedure, shortened: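 Compounds, diluted in DMSO/media containing doxycycline, were incubated at 37° C., 5% CO2 with cells seeded one day earlier. The cells stably express HER3-ss+4aa/Gaussia luciferase under T-REx control. Where no stereochemistry is shown, data refer to the mixture of stereoisomers.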

[6] = system: PD1-ss+10aa/Gaussia Luciferase; assay: Dox-Induced PD1-ss-Gluc Assay; conditions: 293FRT/TO cells, read-out: 24 hr Dox Inducible PD1ssGluc 293FRT/TO: Mean IC50
Procedure, shortened: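 Compounds, diluted in DMSO/media with doxycycline, were added to cells plated a day earlier and kept at 37° C under 5% CO2. The cells stably express a Gaussia luciferase construct fused to PD1-ss+10aa, induced via the T-REx system. Unassigned stereochemistry means mixture data.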

[7] = 24 hr doxycycline induction, Gaussia luciferase signal

Row | SMILES | pEC50 [1] | pEC50 [2] | pIC50 [3, 7] | pIC50 [4, 7] | pIC50 [5, 7] | pIC50 [6, 7] | pIC50 ([3]; 24 hr, doxycycline-induced) | pIC50 ([4]; 24 hr, doxycycline-induced) | pIC50 ([5]; 24 hr, doxycycline-induced) | pIC50 ([6]; 24 hr, doxycycline-induced)
1 | CNC(=O)c1cnc(NC(=O)c2cccn2Cc2ccncc2)s1 [Compound B16] | < 4.60 | < 4.60 | – | – | – | – | < 4.60 | < 4.60 | < 4.60 | < 4.60
2 | CCc1nc(NC(=O)[C@@H]2CCCN2Cc2ccncc2)sc1C [Compound B26, (S)-N-(4-ethyl-5-methylthiazol-2-yl)-1-(pyridin-4-ylmethyl)pyrrolidine-2-carboxamide] | < 4.60 | < 4.60 | – | – | – | – | < 4.60 | < 4.60 | < 4.60 | < 4.60
3 | O=C(Nc1ncc(CCO)s1)c1cccn1Cc1ccncc1 [Compound A119] | < 4.60 | < 4.60 | < 4.60 | < 4.60 | < 4.60 | < 4.60 | – | – | – | –
4 | O=C(Nc1nc(/C=C/c2cccnc2)cs1)c1cccn1Cc1ccncc1 [Compound A165, N-(4-(2-(pyridin-3-yl)vinyl)thiazol-2-yl)-1-(pyridin-4-ylmethyl)-1H-pyrrole-2-carboxamide] | 4.96 | < 4.60 | < 4.60 | 4.97 | 5.01 | 5.78 | – | – | – | –
5 | CC(C)Cc1cnc(NC(=O)c2cccn2Cc2ccncc2)s1 [Compound A57] | < 4.60 | < 4.60 | < 4.60 | 5.31 | 5.38 | 5.85 | – | – | – | –
6 | CC(OC(C)(C)c1csc(NC(=O)c2cccn2Cc2ccncc2)n1)c1ccc(Cl)cc1 (stereo not drawn) [Compound A5, N-(4-(2-(1-(4-chlorophenyl)ethoxy)propan-2-yl)thiazol-2-yl)-1-(pyridin-4-ylmethyl)-1H-pyrrole-2-carboxamide] | 5.61 | 4.62 | 6.09 | 6.84 | 6.99 | 7.37 | – | – | – | –
7 | COc1ccc(O[C@H]2C[C@H](c3csc(NC(=O)c4cccn4Cc4ccncc4)n3)C2)nc1 [Compound A314] | 5.00 | 4.80 | – | – | – | – | 5.83 | 6.37 | 6.84 | 7.33
8 | CCc1csc(NC(=O)c2cccn2Cc2ccncc2)n1 [Compound A35, N-(4-ethylthiazol-2-yl)-1-(pyridin-4-ylmethyl)-1H-pyrrole-2-carboxamide] | < 4.60 | < 4.60 | < 4.60 | 5.64 | 5.71 | 6.16 | – | – | – | –
9 | CO[C@H]1C[C@H](c2csc(NC(=O)c3cccn3Cc3ccncc3)n2)N(c2ccccc2)C1 [Compound A333] | 5.83 | < 4.60 | – | – | – | – | 6.78 | 7.57 | 7.38 | 7.68
10 | Cc1nc(NC(=O)c2cccn2Cc2ccncc2)sc1F [Compound A42] | < 4.60 | < 4.60 | < 4.60 | 5.42 | 5.66 | 6.03 | – | – | – | –
11 | CN(C(=O)c1cccn1Cc1ccncc1)c1nc2ccccc2s1 [Compound A116] | < 4.60 | < 4.60 | < 4.60 | < 4.60 | < 4.60 | < 4.60 | – | – | – | –
12 | CCc1nc(NC(=O)c2cccn2Cc2ccncc2Cl)sc1C [Compound A66, 1-((3-chloropyridin-4-yl)methyl)-N-(4-ethyl-5-methylthiazol-2-yl)-1H-pyrrole-2-carboxamide] | < 4.60 | < 4.60 | < 4.60 | 5.32 | 5.38 | 5.74 | – | – | – | –
13 | N#Cc1cnc(NC(=O)c2cccn2Cc2ccncc2)s1 [Compound B15] | < 4.60 | < 4.60 | – | – | – | – | < 4.60 | < 4.60 | < 4.60 | < 4.60
14 | O=C(Nc1nc([C@H]2C[C@@H]2c2ccccc2)cs1)c1cccn1Cc1ccncc1 [Compound A194, N-(4-((1S,2S)-2-phenylcyclopropyl)thiazol-2-yl)-1-(pyridin-4-ylmethyl)-1H-pyrrole-2-carboxamide] | 5.18 | 4.80 | 5.64 | 5.94 | 6.22 | 6.55 | – | – | – | –
15 | CC(C)OC(C)(C)c1csc(NC(=O)c2ccc(CO)n2Cc2ccncc2)n1 [Compound A110, 5-(hydroxymethyl)-N-(4-(2-isopropoxypropan-2-yl)thiazol-2-yl)-1-(pyridin-4-ylmethyl)-1H-pyrrole-2-carboxamide] | < 4.60 | < 4.60 | < 4.60 | < 4.60 | < 4.60 | < 4.60 | – | – | – | –

The remaining lines, values ahead:

Row | pEC50 [1] | pEC50 [2] | pIC50 [3, 7] | pIC50 [4, 7] | pIC50 [5, 7] | pIC50 [6, 7] | pIC50 ([3]; 24 hr, doxycycline-induced) | pIC50 ([4]; 24 hr, doxycycline-induced) | pIC50 ([5]; 24 hr, doxycycline-induced) | pIC50 ([6]; 24 hr, doxycycline-induced) | SMILES
16 | < 4.60 | < 4.60 | 5.32 | 5.91 | 6.24 | 6.63 | – | – | – | – | O=C(Nc1nc(/C=C/c2cccc(Cl)c2)cs1)c1cccn1Cc1ccncc1 [Compound A209, N-(4-(3-chlorostyryl)thiazol-2-yl)-1-(pyridin-4-ylmethyl)-1H-pyrrole-2-carboxamide]
17 | 5.31 | 5.21 | 5.39 | 5.64 | 5.91 | 6.12 | – | – | – | – | O=C(Nc1nc(C2Cc3ccccc3C2)cs1)c1cccn1CCCc1ccncc1 [Compound A284]
18 | 4.86 | 4.75 | < 4.60 | 5.22 | 5.31 | 4.92 | – | – | – | – | O=C(Nc1nc(Cc2ccccc2)cs1)c1cccn1Cc1ccncc1NCc1ccccc1 [Compound A213, 1-((3-(benzylamino)pyridin-4-yl)methyl)-N-(4-benzylthiazol-2-yl)-1H-pyrrole-2-carboxamide]
19 | 4.64 | < 4.60 | 4.93 | 6.03 | 6.09 | 6.26 | – | – | – | – | CC(C)OC(C)(C)c1nc(NC(=O)c2cccn2Cc2ccncc2)sc1Br [Compound A30]
20 | 5.05 | 5.03 | 5.92 | 6.13 | 6.38 | 6.82 | – | – | – | – | O=C(Nc1nc(C#Cc2ccccc2)cs1)c1cccn1Cc1ccncc1 [Compound A132]
21 | < 4.60 | < 4.60 | – | – | – | – | 5.10 | 5.85 | 6.08 | 6.60 | COc1ccc(N2CC(c3csc(NC(=O)c4cccn4Cc4ccncc4)n3)C2)nc1 [Compound A315]
22 | < 4.60 | < 4.60 | < 4.60 | 5.24 | < 4.60 | 5.20 | – | – | – | – | CC(C)OC(C)(C)c1csc(NC(=O)c2cccn2Cc2ccc(S(C)(=O)=O)cc2)n1 [Compound A84, N-(4-(2-isopropoxypropan-2-yl)thiazol-2-yl)-1-(4-(methylsulfonyl)benzyl)-1H-pyrrole-2-carboxamide]
23 | < 4.60 | < 4.60 | 4.94 | 5.27 | 5.58 | 6.16 | – | – | – | – | O=C(Nc1nc(/C=C/C2CCCOC2)cs1)c1cccn1Cc1ccncc1 (stereo not drawn) [Compound A154, 1-(pyridin-4-ylmethyl)-N-(4-(2-(tetrahydro-2H-pyran-3-yl)vinyl)thiazol-2-yl)-1H-pyrrole-2-carboxamide]
